Measurements taken from the supplement of paper PMC10307832.

Key:
Assay in all cases: relative viability (nuclei count vs DMSO), 5 days (fraction); higher = more cells survive
NCI-H1755 = system: NCI-H1755
How it was run: (§1)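 Lung cancer cell lines in 1536-well plates got either a single drug or a fixed anchor-drug dose together with five library-drug doses (not always all listed) in √10 steps, by pin tool, on the day after seeding. Nuclei were counted after 5 days, and relative viability is the treated-to-vehicle ratio of nuclei counts. Values are medians of duplicate plates.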

LXF-289 = system: LXF-289
How it was run: as §1

HCC-78 = system: HCC-78
How it was run: as §1

HCC-15 = system: HCC-15
How it was run: as §1

NCI-H2085 = system: NCI-H2085
How it was run: as §1

NCI-H3122 = system: NCI-H3122
How it was run: as §1

EPLC-272H = system: EPLC-272H
How it was run: as §1

NCI-H2023 = system: NCI-H2023
How it was run: as §1

NCI-H358 = system: NCI-H358
How it was run: as §1

CAL-12T = system: CAL-12T
How it was run: as §1

NCI-H441 = system: NCI-H441
How it was run: as §1

NCI-H2126 = system: NCI-H2126
How it was run: as §1

HOP-62 = system: HOP-62
How it was run: as §1

NCI-H1666 = system: NCI-H1666
How it was run: as §1

NCI-H1915 = system: NCI-H1915
How it was run: as §1

UMC-11 = system: UMC-11
How it was run: as §1

EMC-BAC-2 = system: EMC-BAC-2
How it was run: as §1

ChaGo-K-1 = system: ChaGo-K-1
How it was run: as §1

ABC-1 = system: ABC-1
How it was run: as §1

NCI-H1975 = system: NCI-H1975
How it was run: as §1

NCI-H322M = system: NCI-H322M
How it was run: as §1

COR-L 105 = system: COR-L 105
How it was run: as §1

O=c1cc(N2CCOCC2)oc2c(-c3cccc4c3sc3ccccc34)cccc12 + O=C(c1cc(Cc2n[nH]c(=O)c3ccccc23)ccc1F)N1CCN(C(=O)C2CC2)CC1 [Olaparib] (partner 8 µM)
relative viability (NCI-H1755; first compound 0.01 µM): 0.896 | relative viability (NCI-H1755; first compound 0.03162 µM): 0.891 | relative viability (NCI-H1755; first compound 0.1 µM): 0.869 | relative viability (NCI-H1755; first compound 0.3162 µM): 0.848 | relative viability (NCI-H1755; first compound 1 µM): 0.883 | relative viability (LXF-289; first compound 0.01 µM): 1.01 | relative viability (LXF-289; first compound 0.03162 µM): 1.08 | relative viability (LXF-289; first compound 0.1 µM): 1.08 | relative viability (LXF-289; first compound 0.3162 µM): 1.03 | relative viability (LXF-289; first compound 1 µM): 1.11 | relative viability (HCC-78; first compound 0.01 µM): 0.783 | relative viability (HCC-78; first compound 0.03162 µM): 0.687 | relative viability (HCC-78; first compound 0.1 µM): 0.644 | relative viability (HCC-78; first compound 0.3162 µM): 0.835 | relative viability (HCC-78; first compound 1 µM): 0.828 | relative viability (HCC-15; first compound 0.01 µM): 0.692 | relative viability (HCC-15; first compound 0.03162 µM): 0.742 | relative viability (HCC-15; first compound 0.1 µM): 0.775 | relative viability (HCC-15; first compound 0.3162 µM): 0.74 | relative viability (HCC-15; first compound 1 µM): 0.735 | relative viability (NCI-H2085; first compound 0.01 µM): 0.806 | relative viability (NCI-H2085; first compound 0.03162 µM): 0.813 | relative viability (NCI-H2085; first compound 0.1 µM): 0.775 | relative viability (NCI-H2085; first compound 0.3162 µM): 0.767 | relative viability (NCI-H2085; first compound 1 µM): 0.767 | relative viability (NCI-H3122; first compound 0.01 µM): 0.604 | relative viability (NCI-H3122; first compound 0.03162 µM): 0.679 | relative viability (NCI-H3122; first compound 0.1 µM): 0.566 | relative viability (NCI-H3122; first compound 0.3162 µM): 0.606 | relative viability (NCI-H3122; first compound 1 µM): 0.614 | relative viability (EPLC-272H; first compound 0.01 µM): 0.761 | relative viability (EPLC-272H; first compound 0.03162 µM): 0.934 | relative viability (EPLC-272H; first compound 0.1 µM): 0.848 | relative viability (EPLC-272H; first compound 0.3162 µM): 0.776 | relative viability (EPLC-272H; first compound 1 µM): 0.824 | relative viability (NCI-H2023; first compound 0.01 µM): 0.514 | relative viability (NCI-H2023; first compound 0.03162 µM): 0.471 | relative viability (NCI-H2023; first compound 0.1 µM): 0.491 | relative viability (NCI-H2023; first compound 0.3162 µM): 0.513 | relative viability (NCI-H2023; first compound 1 µM): 0.468 | relative viability (NCI-H358; first compound 0.01 µM): 0.623 | relative viability (NCI-H358; first compound 0.03162 µM): 0.634 | relative viability (NCI-H358; first compound 0.1 µM): 0.721 | relative viability (NCI-H358; first compound 0.3162 µM): 0.553 | relative viability (NCI-H358; first compound 1 µM): 0.669 | relative viability (CAL-12T; first compound 0.01 µM): 0.682 | relative viability (CAL-12T; first compound 0.03162 µM): 0.707 | relative viability (CAL-12T; first compound 0.1 µM): 0.75 | relative viability (CAL-12T; first compound 0.3162 µM): 0.693 | relative viability (CAL-12T; first compound 1 µM): 0.744 | relative viability (NCI-H441; first compound 0.01 µM): 0.485 | relative viability (NCI-H441; first compound 0.03162 µM): 0.48 | relative viability (NCI-H441; first compound 0.1 µM): 0.643 | relative viability (NCI-H441; first compound 0.3162 µM): 0.631 | relative viability (NCI-H441; first compound 1 µM): 0.585 | relative viability (NCI-H2126; first compound 0.01 µM): 0.887 | relative viability (NCI-H2126; first compound 0.03162 µM): 0.91 | relative viability (NCI-H2126; first compound 0.1 µM): 0.938 | relative viability (NCI-H2126; first compound 0.3162 µM): 0.899 | relative viability (NCI-H2126; first compound 1 µM): 0.918 | relative viability (HOP-62; first compound 0.01 µM): 0.441 | relative viability (HOP-62; first compound 0.03162 µM): 0.58 | relative viability (HOP-62; first compound 0.1 µM): 0.409 | relative viability (HOP-62; first compound 0.3162 µM): 0.523 | relative viability (HOP-62; first compound 1 µM): 0.377 | relative viability (NCI-H1666; first compound 0.01 µM): 0.753 | relative viability (NCI-H1666; first compound 0.03162 µM): 0.738 | relative viability (NCI-H1666; first compound 0.1 µM): 0.777 | relative viability (NCI-H1666; first compound 0.3162 µM): 0.684 | relative viability (NCI-H1666; first compound 1 µM): 0.692 | relative viability (NCI-H1915; first compound 0.01 µM): 0.258 | relative viability (NCI-H1915; first compound 0.03162 µM): 0.269 | relative viability (NCI-H1915; first compound 0.1 µM): 0.301 | relative viability (NCI-H1915; first compound 0.3162 µM): 0.26 | relative viability (NCI-H1915; first compound 1 µM): 0.262 | relative viability (UMC-11; first compound 0.01 µM): 0.359 | relative viability (UMC-11; first compound 0.03162 µM): 0.432 | relative viability (UMC-11; first compound 0.1 µM): 0.895 | relative viability (UMC-11; first compound 0.3162 µM): 0.699 | relative viability (UMC-11; first compound 1 µM): 0.404 | relative viability (EMC-BAC-2; first compound 0.01 µM): 0.486 | relative viability (EMC-BAC-2; first compound 0.03162 µM): 0.507 | relative viability (EMC-BAC-2; first compound 0.1 µM): 0.548 | relative viability (EMC-BAC-2; first compound 0.3162 µM): 0.412 | relative viability (EMC-BAC-2; first compound 1 µM): 0.489 | relative viability (ChaGo-K-1; first compound 0.01 µM): 0.421 | relative viability (ChaGo-K-1; first compound 0.03162 µM): 0.439 | relative viability (ChaGo-K-1; first compound 0.1 µM): 0.434 | relative viability (ChaGo-K-1; first compound 0.3162 µM): 0.447 | relative viability (ChaGo-K-1; first compound 1 µM): 0.447 | relative viability (ABC-1; first compound 0.01 µM): 0.917 | relative viability (ABC-1; first compound 0.03162 µM): 0.686 | relative viability (ABC-1; first compound 0.1 µM): 0.535 | relative viability (ABC-1; first compound 0.3162 µM): 0.677 | relative viability (ABC-1; first compound 1 µM): 0.726 | relative viability (NCI-H1975; first compound 0.01 µM): 0.834 | relative viability (NCI-H1975; first compound 0.03162 µM): 0.785 | relative viability (NCI-H1975; first compound 0.1 µM): 0.915 | relative viability (NCI-H1975; first compound 0.3162 µM): 0.82 | relative viability (NCI-H1975; first compound 1 µM): 0.809 | relative viability (NCI-H322M; first compound 0.01 µM): 0.688 | relative viability (NCI-H322M; first compound 0.03162 µM): 0.827 | relative viability (NCI-H322M; first compound 0.3162 µM): 0.73 | relative viability (NCI-H322M; first compound 1 µM): 0.725 | relative viability (COR-L 105; first compound 0.01 µM): 0.661 | relative viability (COR-L 105; first compound 0.03162 µM): 0.756 | relative viability (COR-L 105; first compound 0.1 µM): 0.687 | relative viability (COR-L 105; first compound 0.3162 µM): 0.694 | relative viability (COR-L 105; first compound 1 µM): 0.575
